Experimental data published in US8343475B2, “Small cationic antimicrobial peptides” (priority 2006, dated 2013).
Converted amounts (≈) assume the structure as drawn. Residues, ends and D or L forms follow the SMILES beside them. No end group written: not given here.

Columns and labels:
Type in all cases: cell-based
[1] = tested on: MCP-1 release by human PBMC; assay: Chemokine induction in PBMC (capture ELISA); conditions: background (204) subtracted
Method: FIG. 15. Induction of MCP-1 release by 7.5×10^5 human PBMC in response to treatment with 20 or 100 μg/ml of different peptides for 24 hours.
(§1) Venous blood (20 ml) from healthy volunteers was collected in Vacutainer® collection tubes containing sodium heparin as an anticoagulant (Becton Dickinson, Mississauga, ON) in accordance with UBC ethical approval and guidelines. Blood was diluted 1:1 with complete RPMI 1640 medium and separated by centrifugation over a Ficoll-Paque® Plus (Amersham Biosciences, Piscataway, N.J., USA) density gradient. White blood cells were isolated from the buffy coat, washed twice in RPMI 1640 complete medium, and the number of peripheral blood mononuclear cells (PBMC) was determined by trypan blue exclusion. PBMC (5×10^5) were seeded into 12-well tissue culture dishes (Falcon; Becton Dickinson) at 0.75 to 1×10^6 cells/ml at 37° C. in 5% CO2. The above conditions were chosen to mimic conditions for circulating blood monocytes entering tissues at the site of infection via extravasation.
(§2) Following incubation of the cells under various treatment regimens, the tissue culture supernatants were centrifuged at 1000×g for 5 min, then at 10,000×g for 2 min to obtain cell-free samples. Supernatants were aliquoted and then stored at −20° C. prior to assay for various chemokines by capture ELISA (eBioscience and BioSource International Inc., CA, USA respectively)

[2] = tested on: MCP-3 release by human PBMC; assay: Chemokine induction in PBMC (capture ELISA); conditions: background (6) subtracted
Method: FIG. 16. Induction of MCP3 release by 7.5×10^5 human PBMC in response to treatment with 20 or 100 μg/ml of different peptides for 24 hours.
as §1, §2

[3] = tested on: CXCL1 (Gro-α) release by human PBMC; assay: Chemokine induction in PBMC (capture ELISA); conditions: background (196) subtracted
Method: FIG. 17. Induction of CXCL1 (Gro-α) release by 7.5×10^5 human PBMC in response to treatment with 20 or 100 μg/ml of different peptides for 24 hours.
as §1, §2

[4] = tested on: Pseudomonas aeruginosa PAO1 strain H103; conditions: for MIC: PAO1; for antimicrobial activity against P. aeruginosa PAO1 (in words): laboratory strain P. aeruginosa PAO1
Method: The biological activity of the peptides can be determined by standard methods known to those of skill in the art, such as “minimal inhibitory concentration (MIC)” assay described in the present examples, whereby the lowest concentration at which no change in OD is observed for a given period of time is recorded as MIC.
Minimal inhibitory concentration (MIC) determination. The MIC of the peptides were measured using a modified broth microdilution method in Mueller Hinton (MH) medium (Wu M, Hancock R E W. 1999. Interaction of the cyclic antimicrobial cationic peptide bactenecin with the outer and cytoplasmic membrane. J Biol Chem 274, 29-35). Briefly, the peptides were dissolved and stored in glass vials. The assay was performed in sterile 96-well polypropylene microtitre plates were used. Serial dilutions of the peptides to be assayed were performed in 0.01% acetic acid (Fisher) containing 0.2% bovine serum albumin (Boehringer Mannheim GmbH) at 10× the desired final concentration. Ten microlitres of the 10× peptides were added to each well of a 96-well polypropylene plate containing 90 μl of MH media per well. Bacteria were added to the plate from an overnight culture at 2-7×10^5 colony forming units/ml and incubated over night at 37° C. The MIC was taken as the concentration at which no growth was observed.
(§3) Strains. For the killing assay a mini-Tn5-lux mutant in Pseudomonas aeruginosa H103 was used. The strain is called H1001 and contains a fliC::luxCDABE transcriptional fusion resulting in constitutive expression of luciferase. The bacterial strains used for the antimicrobial activity assays included Escherichia coli UB1005 (F-, nalA37, metB1), a wild-type Salmonella enterica ssp. typhimurium (S. typhimurium), wild-type Pseudomonas aeruginosa PAO1 strain H103, Enterococcus faecalis ATCC29212, Staphylococcus aureus ATCC25923, and a clinical isolate of Staphylococcus epidermidis obtained from Dr. D. Speert (Department of Medicine, University of British Columbia). Antifungal activity was tested using a lab isolate of Candida albicans obtained from Dr. B. Dill (Department of Microbiology and Immunology, University of British Columbia).

[5] = tested on: Pseudomonas aeruginosa strain H1001 fliC::luxCDABE; assay: Luminescence (lux) killing assay, peptides cleaved from cellulose support; set-up: key: − for minimal or no activity; + for weak activity; +/++ for intermediate activity; ++ strong activity; conditions: P. aeruginosa strain H1001, 4 hours incubation, luminescence as indicator
Method: Assay for the cleaved peptides from cellulose support. The peptides were cleaved from the dried membrane in an ammonia atmosphere overnight, resulting in free peptides with an amidated C-terminus. The free peptides contained two β-alanines at the C-terminus, in addition to being amidated due to the linker between the cellulose membrane and the peptide sequence. The peptide spots were punched out and transferred in a 96-well microtiter plate. Serial dilutions were carried out from the membrane spots. Four rows were filled with four controls including 2×Bac2A and 2× an unrelated peptide. The other eight rows were used for serial dilution steps of the peptide variants. An overnight culture of Pseudomonas aeruginosa strain H1001 was diluted 1:500 using either LB media or 100 mM Tris buffer pH 7.3, 20 mM glucose and was added to the wells (100 μl/well) containing the peptide spots. In all other wells 50 μl were added. The microtiter plate was incubated for 30 min at 37° C. to release the peptides from the membrane. Subsequently, a dilution series were performed and the plate was incubated at 37° C. The luminescence produced by the FMN dependent luciferase system were detected in a time dependent manner using a Tecan Spectra Fluor plus.
as §3
Peptide synthesis on cellulose is a very effective and inexpensive way to investigate many different peptide variants for one particular activity. However, one of the problems of this technique is the low peptide amount synthesized on the membrane, about 280 nmol per cm^2. An average peptide spot used for the experiments presented is about 0.3 cm^2. Therefore, an assay had to be developed that was sensitive enough to show activity with this amount of peptides. P. aeruginosa H1001 has a luciferase gene cassette incorporated into the bacterial chromosome in a gene fliC (involved in flagellar biosynthesis) that is constitutively expressed. It will thus produce light if FMN is present. When this strain is killed, e.g. by peptides, the amount of light produced will decrease due to a decrease in FMN levels in the killed cells. This action can thus be monitored by detecting luminescence in a microtiter plate luminescence reader over time. The volume and amount of cells per well were optimized for this assay. After screening, we were able to monitor the killing action with small amounts of the parent peptide Bac2A (2 μg/ml of free peptide).

With 1045 (RWWRIVI) [compound 1045] the “Chemokine induction MCP-1” value ([1]; 20 μg/ml peptide) was -2 pg/mL, the “Chemokine induction MCP-1” value ([1]; 100 μg/ml peptide) was 989 pg/mL and the “Chemokine induction MCP-3” value ([2]; 20 μg/ml peptide) was 0 pg/mL. For the same compound, the “Chemokine induction MCP-3” value ([2]; 100 μg/ml peptide) was 31 pg/mL, the “Chemokine induction Gro-α” value ([3]; 20 μg/ml peptide) was 13 pg/mL and the “Chemokine induction Gro-α” value ([3]; 100 μg/ml peptide) was 435 pg/mL.

1046 (WIRVIRW) [compound 1046] was tested, and the “Chemokine induction MCP-1” value ([1]; 20 μg/ml peptide) was 46 pg/mL, the “Chemokine induction MCP-1” value ([1]; 100 μg/ml peptide) was 449 pg/mL and the “Chemokine induction MCP-3” value ([2]; 20 μg/ml peptide) was 1 pg/mL. For the same compound, the “Chemokine induction MCP-3” value ([2]; 100 μg/ml peptide) was 4 pg/mL, the “Chemokine induction Gro-α” value ([3]; 20 μg/ml peptide) was 38 pg/mL and the “Chemokine induction Gro-α” value ([3]; 100 μg/ml peptide) was 147 pg/mL.

In the case of 1047 (IIRRWWV) [compound 1047], the “Chemokine induction MCP-1” value ([1]; 20 μg/ml peptide) is reported as 8 pg/mL, the “Chemokine induction MCP-1” value ([1]; 100 μg/ml peptide) is reported as 130 pg/mL and the “Chemokine induction MCP-3” value ([2]; 20 μg/ml peptide) is reported as 0 pg/mL. For the same compound, the “Chemokine induction MCP-3” value ([2]; 100 μg/ml peptide) was 0 pg/mL, the “Chemokine induction Gro-α” value ([3]; 20 μg/ml peptide) was -1 pg/mL and the “Chemokine induction Gro-α” value ([3]; 100 μg/ml peptide) was -3 pg/mL.

With 1048 (IRWVIRW) [compound 1048] the “Chemokine induction MCP-1” value ([1]; 20 μg/ml peptide) was 96 pg/mL, the “Chemokine induction MCP-1” value ([1]; 100 μg/ml peptide) was 38 pg/mL and the “Chemokine induction MCP-3” value ([2]; 20 μg/ml peptide) was 0 pg/mL. For the same compound, the “Chemokine induction MCP-3” value ([2]; 100 μg/ml peptide) was 0 pg/mL, the “Chemokine induction Gro-α” value ([3]; 20 μg/ml peptide) was 7 pg/mL and the “Chemokine induction Gro-α” value ([3]; 100 μg/ml peptide) was -11 pg/mL.

`CSCC[C@H](NC(=O)[C@H](CCCNC(=N)N)NC(=O)[C@H](Cc1c[nH]cn1)NC(=O)[C@H](CCCNC(=N)N)NC(=O)[C@H](CO)NC(=O)CNC(=O)[C@H](CCCNC(=N)N)NC(=O)[C@H](Cc1ccccc1)NC(=O)[C@H](C)N)C(N)=O` [HHC152, AFRGSRHRM] (H-AFRGSRHRM-NH2; N-terminus assumed) was tested, and the MIC [4] was 506 µM (≈ 565 µg/mL) and the “antimicrobial activity against P. aeruginosa PAO1 (in words)” value [4] was “did not posses any antimicrobial activity”.

With `CSCC[C@H](NC(=O)CNC(=O)[C@H](Cc1c[nH]c2ccccc12)NC(=O)[C@H](CCCNC(=N)N)NC(=O)[C@H](CCCNC(=N)N)NC(=O)CN)C(=O)NCC(=O)N[C@H](C(=O)N[C@@H](CCCNC(=N)N)C(N)=O)C(C)C` [HHC183, GRRWGMGVR] (H-GRRWGMGVR-NH2; N-terminus assumed) the MIC [4] was 360 µM (≈ 386 µg/mL) and the “antimicrobial activity against P. aeruginosa PAO1 (in words)” value [4] was “did not posses any antimicrobial activity”.

`CC(C)C[C@H](NC(=O)CNC(=O)[C@H](CCCCN)NC(=O)[C@H](CC(N)=O)NC(=O)[C@H](CCCNC(=N)N)NC(=O)[C@@H](N)CCC(N)=O)C(=O)N[C@@H](CCCNC(=N)N)C(=O)N[C@@H](Cc1c[nH]cn1)C(=O)N[C@@H](Cc1c[nH]cn1)C(N)=O` [HHC186, QRNKGLRHH] (H-QRNKGLRHH-NH2; N-terminus assumed) was tested, and the MIC [4] was 381 µM (≈ 436 µg/mL) and the “antimicrobial activity against P. aeruginosa PAO1 (in words)” value [4] was “did not posses any antimicrobial activity”.

With `CC[C@H](C)[C@H](NC(=O)[C@H](CCC(N)=O)NC(=O)[C@H](CCCNC(=N)N)NC(=O)[C@H](CCCNC(=N)N)NC(=O)CNC(=O)[C@@H](N)CCCNC(=N)N)C(=O)NCC(=O)N[C@@H](CCCCN)C(=O)N[C@@H](Cc1ccccc1)C(N)=O` [HHC189, RGRRQIGKF] (H-RGRRQIGKF-NH2; N-terminus assumed) the MIC [4] was 379 µM (≈ 423 µg/mL) and the “antimicrobial activity against P. aeruginosa PAO1 (in words)” value [4] was “did not posses any antimicrobial activity”.

For `CC(C)[C@H](NC(=O)CNC(=O)[C@@H](NC(=O)[C@H](CCCNC(=N)N)NC(=O)[C@H](CCCCN)NC(=O)[C@H](CO)NC(=O)[C@H](C)N)C(C)C)C(=O)N[C@@H](CCCNC(=N)N)C(=O)N[C@@H](CC(N)=O)C(N)=O` [HHC190, ASKRVGVRN] (H-ASKRVGVRN-NH2; N-terminus assumed), the MIC [4] was 413 µM (≈ 407 µg/mL) and the “antimicrobial activity against P. aeruginosa PAO1 (in words)” value [4] was “did not posses any antimicrobial activity”.

For “FRIRVRVIR (FRIRVRVIR-NH2) [compound 1030]”, the “Chemokine induction MCP-1” value ([1]; 20 μg/ml peptide) was 139 pg/mL, the “Chemokine induction MCP-1” value ([1]; 100 μg/ml peptide) was 2075 pg/mL and the “Chemokine induction MCP-3” value ([2]; 20 μg/ml peptide) was 1 pg/mL. The “Chemokine induction MCP-3” value ([2]; 100 μg/ml peptide) was 35 pg/mL, the “Chemokine induction Gro-α” value ([3]; 20 μg/ml peptide) was 10 pg/mL and the “Chemokine induction Gro-α” value ([3]; 100 μg/ml peptide) was 674 pg/mL.

In the case of KFFKFKK [HH1009], the Antimicrobial activity [5] is reported as “−”.

For KFHWWIWRK [HH988], the Antimicrobial activity [5] was “++”.
